The test system of assay [1] is Spodoptera littoralis. The assay can be described thus: Spodoptera littoralis (Egyptian cotton leafworm) cotton leaf disc spray test. It counts as in vivo. The note with it: foliar, 72 h, 200 ppm spray on cotton leaf discs, L1 larvae, mortality, repellent effect, feeding behaviour, growth regulation 3 DAT. The text has this:
Spodoptera littoralis (Egyptian Cotton Leafworm)
Cotton leaf discs were placed on agar in a 24-well microtiter plate and sprayed with test solutions at an application rate of 200 ppm. After drying, the leaf discs were infested with 5 L1 larvae. The samples were checked for mortality, repellent effect, feeding behaviour, and growth regulation 3 days after treatment (DAT). The following compounds gave at least 80% control of Spodoptera littoralis: I-3, II-3, II-7, V-3, XXVII-3, XXVIII-3, XXIX-3, XXXI-3.

Assay [2] deals with Aedes aegypti. Briefly: Aedes aegypti (yellow fever mosquito) larvae test. It counts as in vivo. The note with it: 48 h, L2 larvae in 96-well plates, 2 days, mortality and growth inhibition. The text has this: Aedes aegypti (Yellow Fever Mosquito):
10-15 Aedes larvae (L2) together with a nutrition mixture are placed in 96-well microtiter plates. Test solutions at an application rate of 2 ppm are pipetted into the wells. 2 days later, insects were checked for mortality and growth inhibition. The following compounds gave at least 80% control of Aedes aegypti: I-3, II-3, II-7, V-3, XXVII-3, XXVIII-3, XXIX-3, XXXI-3.

SMILES strings stand for the structures.

Consider eight compounds from US8338443B2, “Chemical compounds” (priority 2006, dated 2012).

As a reminder, the pest or weed control is the degree to which the test organism was suppressed or injured, in per cent. Low values mean a weak effect, high ones a strong effect. In assay [1], `Cc1nc2c(C3=CCN(C/C=C/c4ccc(Cl)cc4)CC3)c(NC(=O)c3ccnc(Cl)c3)ccc2s1` [XXXI-3] displayed a pest or weed control at 200 ppm of no less than 80%. The pest or weed control at 2 ppm in assay [2] was no less than 80%.

As to `O=C(Nc1ccc2scnc2c1C1CCN(C/C=C/c2ccc(Cl)cc2)CC1)c1ccnc(Cl)c1` [II-3, 2-Chloro-N-(4-{1-[(E)-3-(4-chloro-phenyl)-allyl]-piperidin-4-yl}-benzothiazol-5-yl)-isonicotinamide], the pest or weed control at 200 ppm in assay [1] was no less than 80%. In addition, in assay [2], the pest or weed control at 2 ppm was no less than 80%.

As for `O=C(Nc1ccc2scnc2c1C1CCN(C/C=C/c2ccc(OC(F)(F)F)cc2)CC1)c1ccnc(Cl)c1` [II-7], in assay [1], the pest or weed control at 200 ppm was no less than 80%. The compound further had a pest or weed control at 2 ppm in assay [2] of no less than 80%.

Turning to `O=C(Nc1ccc2nccnc2c1C1CCN(C/C=C/c2ccc(Cl)cc2)CC1)c1ccnc(Cl)c1` [XXVIII-3], the pest or weed control at 200 ppm in assay [1] was no less than 80%. The compound further yielded a pest or weed control at 2 ppm in assay [2] of no less than 80%.

In assay [1], `O=C(Nc1ccc2cccnc2c1C1CCN(C/C=C/c2ccc(Cl)cc2)CC1)c1ccnc(Cl)c1` [Compound I-3] gave a pest or weed control at 200 ppm of no less than 80%. Further, in assay [2], the pest or weed control at 2 ppm was no less than 80%.

Regarding `O=C(Nc1ccc2cccnc2c1C1=CCN(C/C=C/c2ccc(Cl)cc2)CC1)c1ccnc(Cl)c1` [XXIX-3], the pest or weed control at 200 ppm in assay [1] was no less than 80%. This compound came in with a pest or weed control at 2 ppm in assay [2] of no less than 80%.

As for `O=C(Nc1ccc2ncsc2c1C1CCN(C/C=C/c2ccc(Cl)cc2)CC1)c1ccnc(Cl)c1` [Compound V-3], in assay [1], the pest or weed control at 200 ppm was no less than 80%. In assay [2], this compound returned a pest or weed control at 2 ppm of no less than 80%.

For the compound `O=C(Nc1ccc2cn[nH]c2c1C1CCN(C/C=C/c2ccc(Cl)cc2)CC1)c1ccnc(Cl)c1` [XXVII-3], the pest or weed control at 200 ppm in assay [1] is no less than 80%. The compound further registered a pest or weed control at 2 ppm in assay [2] of no less than 80%.
